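Protocol summary: plate cells (96-well), add compound at 5 concentrations, incubate 48 h, interpolate endpoints linearly. TGI: total growth inhibition.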
Tests used:
Assay in all cases: inhibition of tumour cell growth, NCI panel, 48 h
[1] = tested on: SK-MEL-5 melanoma
[2] = tested on: MOLT-4 leukemia
[3] = tested on: HCT-15 colon
[4] = tested on: A498 renal
[5] = tested on: NCI-H460 lung
[6] = tested on: NCI/ADR-RES ovarian
[7] = tested on: HL-60(TB) leukemia
[8] = tested on: ACHN renal
[9] = tested on: UACC-62 melanoma
[10] = tested on: SR leukemia

Row | SMILES | TGI [1] [µM] | TGI [2] [µM] | TGI [3] [µM] | TGI [4] [µM] | TGI [5] [µM] | TGI [6] [µM] | TGI [7] [µM] | TGI [8] [µM] | TGI [9] [µM] | TGI [10] [µM]
1 | O=C(Nc1ccccc1C(=O)NCc1ccccc1)/C(=C/c1ccccc1O)NC(=O)c1ccccc1 | > 100 | > 100 | > 100 | > 100 | > 100 | > 100 | > 100 | > 100 | > 100 | > 100
2 | Cc1cc(=O)[nH]c2cc(NC(=O)C(C)NC(=O)C(C)NC(=O)C(C)NC(=O)OC(C)(C)C)ccc12 (stereo not given) | > 15 | > 15 | > 15 | > 15 | > 15 | > 15 | > 15 | > 15 | > 15 | > 15
3 | Cc1cccc2c(=O)c3cccc([C@H](C)C(=O)O)c3oc12 | > 100 | > 100 | > 100 | > 100 | > 100 | > 100 | > 100 | > 100 | > 100 | > 100
4 | CC1OC(NCCNCCNC2OC(C)C(O)C(O)C2O)C(O)C(O)C1O (stereo not given) | > 100 | > 100 | > 100 | > 100 | > 100 | > 100 | > 100 | > 100 | > 100 | > 100
5 | CC(=O)C1=C(C)N(c2ccccc2)C2(O)C3=C(C(=O)c4ccccc4C3=O)C(O)=CC12Cl (stereo not given) | 9.04 | > 100 | > 100 | 30.5 | > 100 | > 100 | 49 | 33.2 | 73.9 | 12.3
6 | CCOC(CBr)OC1C(=O)OCC1(C)C (stereo not given) | > 100 | > 100 | > 100 | > 100 | > 100 | > 100 | > 100 | > 100 | > 100 | > 100
7 | Nc1cc(C2CCCc3c2[nH]c2ccccc32)ccc1O (stereo not given) | > 100 | 91.2 | > 100 | > 100 | > 100 | > 100 | 50.3 | > 100 | > 100 | > 100
8 | O=C(NC(=S)Nc1ccc(Br)cc1)c1ccc2c(c1)Sc1ccccc1O2 | > 100 | > 100 | > 100 | 66.5 | > 100 | > 100 | > 100 | > 100 | > 100 | > 100
9 | Cc1ccc(C(=O)Nc2ccc(S(=O)(=O)O)c3cc(S(=O)(=O)O)cc(S(=O)(=O)O)c23)cc1NC(=O)c1cccc(NC(=O)Nc2cccc(C(=O)Nc3cc(C(=O)Nc4ccc(S(=O)(=O)O)c5cc(S(=O)(=O)O)cc(S(=O)(=O)O)c45)ccc3C)c2)c1 | > 100 | > 100 | > 100 | > 100 | > 100 | > 100 | > 100 | > 100 | > 100 | > 100
10 | Nc1cc(CO)cc(Nc2c3ccccc3nc3ccccc23)c1 | 30.8 | > 100 | 34.4 | 46.6 | > 100 | 35.8 | > 100 | 31.9 | 34.5 | > 100
11 | O=S1(=O)OCCOS(=O)(=O)C1(F)Cc1ccccc1 | > 100 | > 100 | > 100 | > 100 | > 100 | > 100 | > 100 | > 100 | > 100 | > 100
12 | CN1C/C(=C\c2cccs2)C2=NN(c3ccccc3)C(c3cccs3)C2C1 (stereo not given) | > 100 | > 100 | > 100 | > 90.2 | > 100 | > 100 | 4.45 | > 100 | > 100 | > 100
13 | COc1cc(/C=C2\C(=O)N(c3cccc(NC(C)=O)c3)C(c3ccccc3)S2(=O)=O)cc(OC)c1OC (stereo not given) | > 100 | 86.3 | > 100 | > 100 | > 100 | > 100 | 44.5 | > 100 | > 100 | > 100
14 | COc1ccc(-c2c(C#N)c(N)[nH]c(=S)c2C#N)cc1 | > 100 | > 100 | > 100 | > 100 | > 100 | > 100 | 69.2 | > 100 | > 100 | > 100
15 | CC(O)C(CO)NC(=O)C1CSSCC(NC(=O)C(N)Cc2ccccc2)C(=O)NC(Cc2ccccc2)C(=O)NC(Cc2c[nH]c3ccccc23)C(=O)NC(CCCCN)C(=O)NC(C(C)O)C(=O)N1 (stereo not given) | > 100 | > 100 | > 100 | > 100 | > 100 | > 100 | > 100 | > 100 | > 100 | > 100
16 | Cc1nc2c(Cl)cc(Cl)cc2c2c1CCO2 | > 100 | > 100 | > 100 | > 100 | > 100 | > 100 | > 100 | > 100 | > 100 | > 100
17 | Cc1cc2ncn(CC(=O)O)c2cc1C | > 100 | > 100 | > 100 | > 100 | > 100 | > 100 | > 100 | > 100 | > 100 | > 100
18 | O=C(CCCc1cccc2[nH]c3c(c12)CN(Cc1ccccc1)CC3)c1ccc(F)cc1 | 45.8 | > 100 | > 100 | > 100 | > 100 | > 100 | 10.3 | > 100 | > 100 | > 100
19 | COc1ccc(SCc2cc(OC)ccc2OC)cc1 | 98.9 | > 91.2 | > 66.3 | > 87.1 | > 100 | > 100 | > 100 | > 100 | > 100 | > 100
20 | Cc1ccc([N+](=O)[O-])cc1S(=O)(=O)Nc1ccc(C2=NN(S(=O)(=O)c3cc([N+](=O)[O-])ccc3C)C(c3cccs3)C2)cc1 (stereo not given) | > 100 | 89.3 | > 100 | 78.6 | 94.6 | > 100 | > 100 | > 100 | 47.5 | 66.1
21 | CCO/N=C\c1ccc2oc(-c3ccccc3)cc(=O)c2c1 | 5.54 | 19.9 | 12.4 | 21.9 | 4.19 | 0.436 | 12.2 | 37.2 | 33.9 | 1.99
22 | COc1cc(/C=C/C(=O)CC(=O)/C=C/c2cc(C)c(O)c(OC)c2)cc(C)c1O | > 100 | > 100 | > 100 | > 100 | > 100 | > 100 | > 100 | > 100 | > 100 | > 100
23 | N=C1OC(CN2CCN(c3ccccc3)CC2)CN1C(=O)Nc1ccccc1 (stereo not given) | > 100 | > 100 | > 100 | > 100 | > 100 | > 100 | > 100 | > 100 | > 100 | > 100
24 | NCCCn1c(Cl)nc2ccccc21 | > 100 | > 100 | > 100 | > 100 | > 100 | > 100 | > 100 | > 100 | > 100 | > 100

— PubChem BioAssay (NCI)
